The values below come from patent US9187429B2, “Phenyl-tetrahydroisoquinoline derivatives” (Hoffmann-La Roche Inc., priority 2012, dated 2015).

pEC50: −log10 of the molar value.

Test [1] concerns the target T1, CYP11B2 (Homo sapiens (Human), UniProt P19099). The test is described as follows: G-402 cellular enzyme assay, human CYP11B2 (aldosterone release). The note with it: G-402 cells expressing human CYP11B2, 1 μM Deoxycorticosterone. It counts as cell-based. The method in brief:
(§1)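 G-402 cells stably transfected with human CYP11B2 or CYP11B1, dosed with inhibitor and 1 μM deoxycorticosterone (CYP11B2) or 1 μM deoxycortisol (CYP11B1). Aldosterone or cortisol in supernatant quantified by HTRF; EC50 from 4-parameter MMF fit of steroid level versus inhibitor concentration.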

A further test addresses human CYP11B1 (Homo sapiens (Human), UniProt P15538). The test is described as follows: G-402 cellular enzyme assay, human CYP11B1 (cortisol release). It counts as cell-based. The note with it: G-402 cells expressing human CYP11B1, 1 μM Deoxycortisol. Put shortly: as §1
The conditions of test [2]: rat CKD model; FAD286 4 weeks of treatment, spironolactone 4 and 8 weeks; cited from earlier work.
The target in test [3] is T1, CYP11B2. The note with it: patients with primary aldosteronism, oral; cited from earlier work.

The term pEC50 denotes −log10 of the EC50, conventionally taken in molar units. A low value points to a large EC50.

T1 sequence (P19099 25-503): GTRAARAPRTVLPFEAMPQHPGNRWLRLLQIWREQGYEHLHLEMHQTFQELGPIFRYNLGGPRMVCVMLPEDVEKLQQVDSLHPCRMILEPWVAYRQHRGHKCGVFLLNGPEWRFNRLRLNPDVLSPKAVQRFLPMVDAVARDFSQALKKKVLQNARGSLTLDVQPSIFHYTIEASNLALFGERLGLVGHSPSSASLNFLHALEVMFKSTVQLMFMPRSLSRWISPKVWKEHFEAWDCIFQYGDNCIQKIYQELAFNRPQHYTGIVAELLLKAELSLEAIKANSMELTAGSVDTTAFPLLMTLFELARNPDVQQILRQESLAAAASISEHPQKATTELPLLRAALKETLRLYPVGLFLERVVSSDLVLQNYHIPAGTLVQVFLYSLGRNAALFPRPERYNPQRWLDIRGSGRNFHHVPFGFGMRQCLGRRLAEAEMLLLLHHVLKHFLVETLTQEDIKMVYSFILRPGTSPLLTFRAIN
Sequence of human CYP11B1 (P15538 25-503): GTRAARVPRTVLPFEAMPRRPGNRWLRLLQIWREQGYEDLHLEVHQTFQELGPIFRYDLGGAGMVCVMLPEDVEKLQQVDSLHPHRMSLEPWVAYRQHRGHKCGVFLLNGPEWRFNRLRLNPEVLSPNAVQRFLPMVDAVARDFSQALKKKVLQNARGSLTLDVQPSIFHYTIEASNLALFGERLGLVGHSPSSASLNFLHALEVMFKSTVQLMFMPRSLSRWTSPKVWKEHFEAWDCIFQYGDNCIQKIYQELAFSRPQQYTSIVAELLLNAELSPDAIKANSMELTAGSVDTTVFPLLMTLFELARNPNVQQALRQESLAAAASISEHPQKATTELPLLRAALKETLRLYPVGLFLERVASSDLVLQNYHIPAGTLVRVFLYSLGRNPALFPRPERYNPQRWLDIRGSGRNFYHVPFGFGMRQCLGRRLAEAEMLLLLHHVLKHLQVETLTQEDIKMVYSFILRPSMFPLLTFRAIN

Regarding `Cc1ccc(C2(O)CCCc3c(-c4ccc(C#N)cc4)cncc32)cc1C` (single isomer, unassigned; (-)) [Example 16, (−)-(R or S)-4-(8-(3,4-Dimethylphenyl)-8-hydroxy-5,6,7,8-tetrahydroisoquinolin-4-yl)benzonitrile], the results for the pEC50 on CYP11B2 [1] and at human CYP11B1 were 7.14 and 6.31, respectively.
Consider `CCC(=O)NC1CCc2c(-c3ccc(C#N)cc3)cncc21` (single isomer, unassigned; (-)) [Example 18, (−)-(S or R)—N-(4-(4-Cyanophenyl)-6,7-dihydro-5H-cyclopenta[c]pyridin-7-yl)propionamide], for which the pEC50 at CYP11B2 [1] was 6.06; at human CYP11B1, 5.14.
In the case of `CCC(=O)NC1CCCc2c(-c3ccc(Cl)cc3)cncc21` (single isomer, unassigned; (-)) [Example 25, (−)-(S or R)—N-(4-(4-Chlorophenyl)-5,6,7,8-tetrahydroisoquinolin-8-yl)propionamide], the pEC50 on CYP11B2 [1] is 6.33; at human CYP11B1, 4.64.
On to `CCC(=O)NC1CCCc2c(-c3ccc(F)c(C)c3)cncc21` (single isomer, unassigned; (-)) [Example 28, (−)-(S or R)—N-(4-(4-Fluoro-3-methylphenyl)-5,6,7,8-tetrahydroisoquinolin-8-yl)propionamide], for which the pEC50 at CYP11B2 [1] is 6.65; on human CYP11B1 it was 4.52.
With `CCC(=O)NC1CCCc2c(-c3ccc(C(F)(F)F)cc3F)cncc21` (single isomer, unassigned; (-)) [Example 34, (−)-(S or R)—N-(4-(2-Fluoro-4-(trifluoromethyl)phenyl)-5,6,7,8-tetrahydroisoquinolin-8-yl)propionamide], the pEC50 at CYP11B2 [1] is 5.35; on human CYP11B1 it was 4.37.
The like results for `CCC(=O)NC1CCCc2c(-c3ccc(Cl)c(F)c3)cncc21` (single isomer, unassigned; (-)) [Example 37, (−)-(S or R)—N-(4-(4-Chloro-3-fluorophenyl)-5,6,7,8-tetrahydroisoquinolin-8-yl)propionamide] were, in that order, 5.90 and 4.50.
The like results for `CCC(=O)NC1CCCc2c(-c3ccc(C(F)(F)F)c(F)c3)cncc21` (single isomer, unassigned; (-)) [Example 40, (−)-(S or R)—N-(4-(3-Fluoro-4-(trifluoromethyl)phenyl)-5,6,7,8-tetrahydroisoquinolin-8-yl)propionamide] were, in that order, 5.31 and 4.49.
For the compound `C[C@@H](O)C(=O)NC1CCCc2c(-c3ccc(C(F)(F)F)cc3)cncc21` (single isomer, unassigned; (-)) [Example 48, (−)-(R)-2-Hydroxy-N—[(S or R)-4-(4-trifluoromethyl-phenyl)-5,6,7,8-tetrahydro-isoquinolin-8-yl]-propionamide], the pEC50 was 7.10 at CYP11B2 [1] and 5.68 on human CYP11B1.
For `CCC(=O)NC1CCc2c(-c3ccc(Cl)c(F)c3)cncc21` (single isomer, unassigned; (-)) [Example 56, (−)-(S or R)—N-(4-(4-Chloro-3-fluorophenyl)-6,7-dihydro-5H-cyclopenta[c]pyridin-7-yl)propionamide], the values for the pEC50 on CYP11B2 [1] and at human CYP11B1 were 5.49 and 4.42, respectively.
`CCC(=O)NC1CCc2c(-c3ccc(C(F)(F)F)cc3F)cncc21` (single isomer, unassigned; (-)) [Example 62, (−)-(S or R)—N-(4-(2-Fluoro-4-(trifluoromethyl)phenyl)-6,7-dihydro-5H-cyclopenta[c]pyridin-7-yl)propionamide]: the pEC50 on CYP11B2 [1] was 5.78; at human CYP11B1, 4.83.
The like results for `CCS(=O)(=O)NC1CCc2c(-c3ccc(C(F)(F)F)cc3)cncc21` (single isomer, unassigned; (-)) [Example 65, (−)-(S or R)—N-(4-(4-(Trifluoromethyl)phenyl)-6,7-dihydro-5H-cyclopenta[c]pyridin-7-yl)ethanesulfonamide] were, in that order, 5.79 and 5.97.
The like results for `OC1CCCc2c(-c3ccc(C(F)(F)F)cc3)cncc21` (single isomer, unassigned; (-)) [Example 105, (−)-(S or R)-4-(4-(Trifluoromethyl)phenyl)-5,6,7,8-tetrahydroisoquinolin-8-ol] were, in that order, 6.97 and 5.78.
The like results for `C[C@@H](O)C(=O)NC1CCCc2c(-c3ccc(C(F)(F)F)cc3)cncc21` (stereo partly drawn) [Example 46, (R)-2-Hydroxy-N—[(S,R)-4-(4-trifluoromethyl-phenyl)-5,6,7,8-tetrahydro-isoquinolin-8-yl]-propionamide] were, in that order, 6.80 and 5.43.
Consider `C[C@@H](O)C(=O)NC1CCc2c(-c3ccc(C(F)(F)F)cc3)cncc21` (stereo partly drawn) [Example 52, (R)-2-Hydroxy-N—((R,S)-4-(4-(trifluoromethyl)phenyl)-6,7-dihydro-5H-cyclopenta[c]pyridin-7-yl)propanamide], for which the pEC50 is 6.69 on CYP11B2 [1] and 5.43 on human CYP11B1.
Taken in the same sequence, the figures for `N[C@@H]1CCCc2c(-c3ccc(C(F)(F)F)cc3F)cncc21` [Example 74, (+)-(R)-4-(2-Fluoro-4-(trifluoromethyl)phenyl)-5,6,7,8-tetrahydroisoquinolin-8-amine] were 7.48 and 5.91.
The like results for `CC(=O)N[C@@H]1CCCc2c(-c3ccc(C(F)(F)F)cc3F)cncc21` [Example 75, (+)-(R)—N-(4-(2-Fluoro-4-(trifluoromethyl)phenyl)-5,6,7,8-tetrahydroisoquinolin-8-yl)acetamide] were, in that order, 7.29 and 5.45.
For the compound `CS(=O)(=O)N[C@@H]1CCCc2c(-c3ccc(C(F)(F)F)cc3F)cncc21` [Example 76, (+)-(R)—N-(4-(2-Fluoro-4-(trifluoromethyl)phenyl)-5,6,7,8-tetrahydroisoquinolin-8-yl)methanesulfonamide], the results for the pEC50 on CYP11B2 [1] and on human CYP11B1 were 6.93 and 4.63, respectively.
In the case of `CC(=O)N[C@@H]1CCCc2c(-c3ccc(C(F)(F)F)cc3)cncc21` [Example 77, (+)-(R)—N-(4-(4-(Trifluoromethyl)phenyl)-5,6,7,8-tetrahydroisoquinolin-8-yl)acetamide], the negative logarithm of the EC50 (pEC50) on CYP11B2 [1] is 7.23; on human CYP11B1, 5.65.
Take `CC(=O)N[C@@H]1CCCc2c(-c3ccc(C#N)cc3)cncc21` [Example 78, (+)-(R)—N-(4-(4-Cyanophenyl)-5,6,7,8-tetrahydroisoquinolin-8-yl)acetamide]: the values for the pEC50 on CYP11B2 [1] and on human CYP11B1 were 7.63 and 6.56, respectively.
The like results for `CC(=O)N[C@@H]1CCCc2c(-c3ccc(C(F)(F)F)c(F)c3)cncc21` [Example 79, (+)-(R)—N-(4-(3-Fluoro-4-(trifluoromethyl)phenyl)-5,6,7,8-tetrahydroisoquinolin-8-yl)acetamide] were, in that order, 7.45 and 5.75.
Taken in the same sequence, the figures for `CCC(=O)N[C@@H]1CCCc2c(-c3ccc(C(F)(F)F)cc3C3CC3)cncc21` [Example 107, (R)—N-(4-(2-Cyclopropyl-4-(trifluoromethyl)phenyl)-5,6,7,8-tetrahydroisoquinolin-8-yl)propionamide] were 6.02 and 5.11.
In the case of `N#Cc1ccc(C2CCCc3cncn32)cc1` (centres unmarked) [FAD286], in test [2], the plasma aldosterone entry is recorded as “reduced”.
Regarding `N#Cc1ccc([C@H]2CCc3cncn32)c(F)c1` [LCI699], on CYP11B2 [3], the blood pressure result was “mildly decreased”, the circulating aldosterone levels entry is given as “significantly lower” and the hypokalemia result is “corrected”.
On to `CC(=O)S[C@@H]1CC2=CC(=O)CC[C@]2(C)[C@H]2CC[C@@]3(C)[C@@H](CC[C@@]34CCC(=O)O4)[C@H]12` [spironolactone], for which, in test [2], the plasma aldosterone result is reported as “increased”.
